Results from patent US20210030698A1, “GEL CONTAINING ZERUMBONE FROM BITTER GINGER (ZINGIBER ZERUMBET) FOR CURATIVE TREATMENT OF DIABETIC ULCERS” (INSTITUTO NACIONAL DE PESQUISAS DA AMAZÔNIA ? INPA, priority 2018, published 2021).

Key:
mice [1] = assay: analgesic activity in chemical and thermal models of pain (acetic acid, formalin, capsaicin); format: in vivo
mice [2] = assay: hot plate test pain model; format: in vivo; conditions: hot plate 49-54° C.
rat paw edema = assay: anti-inflammatory activity, carrageenan rat paw edema; format: in vivo; conditions: croton oil and arachidonic acid models
[3] = barbiturate sleep (sodium pentobarbital); format: in vivo; conditions: sodium pentobarbital (nembutal)
Artemia salina = assay: in vitro cytotoxicity test on Artemia salina
Procedure: In the in vitro cytotoxicity tests, zerumbone produced mortality for Artemia salina of CL50—45 ug/ml, showing a positive correlation between antitumor and anti-inflammatory activities.

C/C1=C\CC(C)(C)/C=C/C(=O)/C(C)=C/CC1 [zerumbone]
analgesic activity against pain models acetic acid, formalin and capsaicin (mice [1]; administered orally and intraperitoneally): significant, dose-dependent analgesic activity | analgesic effect in chemical and thermal models of pain (mice [1]; doses of 250 to 1000 mg/kg, mice): potent analgesic effect | latency of the animals in the hot plate test (mice [2]): significantly increased | anti-inflammatory effect, inhibition of carrageenan inflammatory response in rat paw edema (rat paw edema): significant and dose-dependent anti-inflammatory effects | barbiturate sleep recovery time (T.R) [3]: approximately 600 minutes | CL50 mortality for Artemia salina (Artemia salina): 45 µg/mL
